Measured values as given in patent US9073914B2, “Substituted alkyl pyrimidin-4-one derivatives” (SANOFI, priority 2008, dated 2015).

Key:
[1] = target: GSK3β (Homo sapiens, UniProt P49841); experiment: Inhibitory activity against GSK3β (33P-ATP phosphorylation of prephosphorylated GS1 peptide, four protocols); type: biochemical
Method: Test Example:Inhibitory Activity of the Medicament of the Present Invention Against GSK3β Four different protocols can be used. In a first protocol: 7.5 μM of prephosphorylated GS1 peptide and 10 μM ATP (containing 300,000 cpm of ^33P-ATP) were incubated in 25 mM Tris-HCl, pH 7.5, 0.6 mM DTT, 6 mM MgCl2, 0.6 mM EGTA, 0.05 mg/ml BSA buffer for 1 hour at room temperature in the presence of GSK3beta (total reaction volume: 100 microliters). In a second protocol: 4.1 μM of prephosphorylated GS1 peptide and 42 μM ATP (containing 260,000 cpm ^33P-ATP) were incubated in 80 mM Mes-NaOH, pH 6.5, 1 mM Mg acetate, 0.5 mM EGTA, 5 mM 2-mercaptoethanol, 0.02% Tween 20, 10% glycerol buffer for 2 hours at room temperature in the presence of GSK3beta. In a third protocol: 7.5 μM of prephosphorylated GS1 peptide and 10 μM ATP (containing 300,000 cpm of ^33P-ATP) were incubated in 50 mM Hepes, pH 7.2, 1 mM DTT, 1 mM MgCl2, 1 mM EGTA, 0.01% Tween 20 buffer for one hour at room temperature in the presence of GSK3beta (total reaction volume: 100 microliters). […] Incorporated ^33P radioactivity was determined by liquid scintillation spectrometry. […]

Sequence of GSK3β (P49841 whole entry): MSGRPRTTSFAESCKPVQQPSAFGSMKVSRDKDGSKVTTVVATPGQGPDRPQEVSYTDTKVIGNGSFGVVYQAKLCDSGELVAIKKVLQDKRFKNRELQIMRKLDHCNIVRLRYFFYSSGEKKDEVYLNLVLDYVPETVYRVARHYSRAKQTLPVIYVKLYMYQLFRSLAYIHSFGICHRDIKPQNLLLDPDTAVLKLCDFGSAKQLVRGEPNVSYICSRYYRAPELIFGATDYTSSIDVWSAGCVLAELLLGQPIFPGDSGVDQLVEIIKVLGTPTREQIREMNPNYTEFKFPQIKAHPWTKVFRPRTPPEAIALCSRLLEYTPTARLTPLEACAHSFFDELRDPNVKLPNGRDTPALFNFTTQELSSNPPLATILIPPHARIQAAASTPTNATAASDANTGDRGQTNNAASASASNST

IC50 ([1]; protocol 4 (commercial GSK3beta, Millipore; 10 μM ATP; 90 minutes)) [nM]	melting point [°C]	inhibition of GSK3β ([1]; at 1 μM) [%]	Molecule
8	130 to 132		O=c1cc(-c2ccncn2)nc2n1CCCCC2C1CC1 (racemic) [Compound No 20 of table 2, (+/−)-10-Cyclopropyl-2-pyrimidin-4-yl-7,8,9,10-tetrahydro-6H-pyrimido[1,2-α]azepin-4-one]
		63	(+/−)-9-Ethyl-4-oxo-2-pyrimidin-4-yl-5,6,8,9-tetrahydro-4H-1,4-a,7-triaza-benzocycloheptene-7-carboxylic acid ethyl ester [Compound No 1 of table 3]
